Assay results reported in ChEMBL document CHEMBL4732189, “A facile synthesis of diaryl pyrroles led to the discovery of potent colchicine site antimitotic agents” (Eur J Med Chem, 2021).

Assays:
CCRF-CEM = assay: Antiproliferative activity against human CCRF-CEM cells assessed as reduction in cell viability after 72 hrs by MTT assay; type: functional, cell-based
HeLa = assay: cells; settings: Homo sapiens, 72 h
Description: Antiproliferative activity against human HeLa cells assessed as reduction in cell viability after 72 hrs by MTT assay

SEM cells = assay: Antiproliferative activity against human SEM cells assessed as reduction in cell viability after 72 hrs by MTT assay; type: functional, cell-based
HL-60 = assay: Antiproliferative activity against human HL-60 cells assessed as reduction in cell viability after 72 hrs by MTT assay; type: functional, cell-based; settings: HL-60, 72 h
HT-29 = assay: cells; settings: Homo sapiens, HT-29, 72 h
A549 = assay: cells; settings: Homo sapiens, A549, 72 h
Description: Antiproliferative activity against human A549 cells assessed as reduction in cell viability after 72 hrs by MTT assay

[1] = Inhibition of bovine brain tubulin polymerization incubated for 15 mins followed by GTP addition and measured after 20 mins by spectrophotometric method; type: tissue-based, Bos taurus
Bos taurus = organism: Bos taurus; assay: Displacement of [3H]colchicine from bovine brain tubulin at 5 uM by DEAE-cellulose filter method relative to control; type: tissue-based

Row | Structure (SMILES) | IC50 (CCRF-CEM) | IC50 (HeLa) | IC50 (SEM cells) | IC50 (HL-60) | IC50 (HT-29) | IC50 (A549) | IC50 [1] | inhibition (Bos taurus)
1 | COc1cc(-n2cccc2-c2cc(C)c(OC)c(C)c2)cc(OC)c1OC | 9110 nM | > 10000 nM | 7920 nM | > 10000 nM | > 10000 nM | > 10000 nM | – | –
2 | COc1ccc(-c2c[nH]cc2-c2cc(OC)c(OC)c(OC)c2)cc1F | 53 nM | 33 nM | 5.3 nM | 33.6 nM | 48 nM | 203 nM | – | –
3 | COc1ccc(-c2cccn2-c2cc(OC)c(OC)c(OC)c2)cc1 | 2510 nM | 1920 nM | 150 nM | 470 nM | 2120 nM | > 10000 nM | – | –
4 | CCc1ccc(-n2cccc2-c2cc(OC)c(OC)c(OC)c2)cc1 | 4310 nM | > 10000 nM | 1330 nM | 3610 nM | 8340 nM | > 10000 nM | – | –
5 | COCOc1ccc(-c2c[nH]cc2-c2cc(OC)c(OC)c(OC)c2)cc1 | > 10000 nM | > 10000 nM | > 10000 nM | > 10000 nM | > 10000 nM | 8000 nM | – | –
6 | CCCOc1ccc(-c2c[nH]cc2-c2cc(OC)c(OC)c(OC)c2)cc1 | 4240 nM | 370 nM | 913 nM | 3620 nM | 703 nM | 683 nM | – | –
7 | COc1cc(-c2cccn2-c2ccc(C)c(C)c2)cc(OC)c1OC | 3510 nM | > 10000 nM | 2010 nM | 4010 nM | > 10000 nM | > 10000 nM | – | –
8 | COc1cc(-c2c[nH]cc2-c2ccc(C(F)(F)F)cc2)cc(OC)c1OC | 1340 nM | 445 nM | 343 nM | 933 nM | 865 nM | 408 nM | – | –
9 | COc1cc(-c2c[nH]cc2-c2ccc3ccccc3c2)cc(OC)c1OC | 87.9 nM | 137 nM | 32 nM | 54 nM | 255 nM | 228 nM | – | –
10 | COc1cccc(-n2cccc2-c2cc(OC)c(OC)c(OC)c2)c1 | 5010 nM | > 10000 nM | 2010 nM | 3110 nM | > 10000 nM | > 10000 nM | – | –
11 | COc1ccc(-c2cccn2-c2cc(OC)c(OC)c(OC)c2)cc1C | 2510 nM | 9810 nM | 1010 nM | 3930 nM | > 10000 nM | > 10000 nM | – | –
12 | COc1ccc(-c2cccn2-c2cc(OC)c(OC)c(OC)c2)cc1Cl | 2910 nM | 9810 nM | 550 nM | 3220 nM | > 10000 nM | > 10000 nM | – | –
13 | COc1cc(-c2cccn2-c2ccc(N(C)C)cc2)cc(OC)c1OC | 3910 nM | 5610 nM | 610 nM | 2620 nM | 7120 nM | > 10000 nM | – | –
14 | CCOc1ccc(-c2cccn2-c2cc(OC)c(OC)c(OC)c2)cc1 | 1910 nM | 390 nM | 140 nM | 360 nM | 390 nM | 4520 nM | 5600 nM | 63%
15 | COc1cc(-c2c[nH]cc2-c2ccc(C)cc2)cc(OC)c1OC | 47 nM | 54 nM | 17.2 nM | 31.7 nM | 130 nM | 98 nM | 1200 nM | 83%
16 | COc1cc(-c2cccn2-c2cccc3ccccc23)cc(OC)c1OC | 8610 nM | > 10000 nM | 7120 nM | > 10000 nM | > 10000 nM | > 10000 nM | – | –

Row | Structure (SMILES) | IC50 (CCRF-CEM) | IC50 (HeLa) | IC50 (SEM cells) | IC50 (HL-60) | IC50 (HT-29) | IC50 (A549) | IC50 [1] | inhibition (Bos taurus)
17 | COc1cc(-n2cccc2-c2ccc3ccccc3c2)cc(OC)c1OC | 1310 nM | 410 nM | 150 nM | 400 nM | 650 nM | 3100 nM | 1600 nM | 74%
18 | COc1cc(-c2cccn2-c2ccc3ccccc3c2)cc(OC)c1OC | 1410 nM | 430 nM | 190 nM | 400 nM | 840 nM | 5520 nM | 1600 nM | 70%
19 | COc1cc(-n2cccc2-c2cc3ccccc3s2)cc(OC)c1OC | 2920 nM | 950 nM | 290 nM | 3010 nM | 5910 nM | > 10000 nM | – | –
20 | COc1cc(-c2c[nH]cc2-c2ccc(OC(F)(F)F)cc2)cc(OC)c1OC | 6260 nM | 5230 nM | 4790 nM | 5950 nM | 5460 nM | 4230 nM | – | –
21 | COc1ccc(/C=C\c2cc(OC)c(OC)c(OC)c2)cc1O [COMBRETASTATIN A4] | 2 nM | – | 5 nM | – | – | – | – | –
22 | COc1ccc(-c2c[nH]cc2-c2cc(OC)c(OC)c(OC)c2)cc1 | 117 nM | 28 nM | 34.6 nM | 255 nM | 31 nM | 88 nM | – | –
23 | COc1cc(-c2cccn2-c2cc(OC)c(OC)c(OC)c2)ccc1C | 2810 nM | > 10000 nM | 2310 nM | 3620 nM | > 10000 nM | > 10000 nM | – | –
24 | COc1ccc(-c2c[nH]cc2-c2cc(OC)c(OC)c(OC)c2)cc1Cl | 280 nM | 297 nM | 69.3 nM | 177 nM | 279 nM | 243 nM | – | –
25 | CCSc1ccc(-c2c[nH]cc2-c2cc(OC)c(OC)c(OC)c2)cc1 | 3070 nM | 386 nM | 480 nM | 2660 nM | 630 nM | 336 nM | – | –
26 | CCc1ccc(-c2c[nH]cc2-c2cc(OC)c(OC)c(OC)c2)cc1 | 226 nM | 297 nM | 48 nM | 164 nM | 289 nM | 257 nM | – | –
27 | COc1cc(-n2cccc2-c2ccc(C)c(C)c2)cc(OC)c1OC | 3200 nM | 3280 nM | 750 nM | 4010 nM | 7810 nM | > 10000 nM | – | –
28 | COc1cc(-c2c[nH]cc2-c2cc3ccccc3s2)cc(OC)c1OC | 155 nM | 43 nM | 37.3 nM | 35.3 nM | 383 nM | 228 nM | – | –
29 | COc1cc(-n2cccc2-c2ccc(SC)cc2)cc(OC)c1OC | 2810 nM | > 10000 nM | 200 nM | 810 nM | > 10000 nM | > 10000 nM | – | –
30 | CCSc1ccc(-c2cccn2-c2cc(OC)c(OC)c(OC)c2)cc1 | 4630 nM | 3910 nM | 1550 nM | 3720 nM | 9420 nM | > 10000 nM | – | –
31 | CCCc1ccc(-c2cccn2-c2cc(OC)c(OC)c(OC)c2)cc1 | 4910 nM | > 10000 nM | > 10000 nM | > 10000 nM | > 10000 nM | > 10000 nM | – | –
32 | CCc1ccc(-c2cccn2-c2cc(OC)c(OC)c(OC)c2)cc1 | 3010 nM | 9920 nM | 310 nM | 1130 nM | 5440 nM | > 10000 nM | – | –
